# From patent US9695155B2, “Herbicidal substituted pyrimidinyloxy benzene compounds” (E. I. DU PONT DE NEMOURS AND COMPANY, priority 2013, dated 2017)
# Tests used:
# wheat [1] = assay: Test A preemergence; assay type: in vivo, Triticum aestivum; settings: for Plant response rating, Wheat: 125 g ai/ha; for Wheat plant response rating: 500 g ai/ha
# Summary of the method: (§1)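 Greenhouse pot test, loam/sand soil. Formulation: non-phytotoxic solvent mix plus surfactant. Pre: directed spray onto soil after sowing. Post: plants at 1–2 leaf, 2–10 cm. Rated visually vs untreated controls at ~10 d, 0 (no effect) to 100 (complete control).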
# barnyardgrass [2] = assay: Test B flooded paddy test; assay type: in vivo, Echinochloa crus-galli; settings: Flood, 250 g ai/ha; 0 to 100 scale where 0 is no effect and 100 is complete control
# Summary of the method: (§2)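 Evaluation is visual, against untreated controls, 13 to 15 days after treatment. Before treatment, plants reached the 2-leaf stage; pots were then flooded 3 cm deep, compound was added to the water, and that level was maintained. Ratings run 0 to 100, with 100 meaning complete control.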
# giant foxtail [3] = assay: Test A postemergence; assay type: in vivo, Setaria faberii; settings: 0 to 100 scale where 0 is no effect and 100 is complete control
# Summary of the method: as §1
# wheat [4] = assay: Test A postemergence; assay type: in vivo, Triticum aestivum; settings: 0 to 100 scale where 0 is no effect and 100 is complete control
# Summary of the method: as §1
# corn [5] = assay: Test A preemergence; assay type: in vivo, Zea mays; settings: for Plant response rating, Corn: 125 g ai/ha; for Corn plant response rating: 500 g ai/ha
# Summary of the method: as §1
# giant foxtail [6] = assay: Test A preemergence; assay type: in vivo, Setaria faberii; settings: for Plant response rating, Foxtail, Giant: 125 g ai/ha; for Foxtail, Giant plant response rating: 500 g ai/ha
# Summary of the method: as §1
# morningglory [7] = assay: Test A postemergence; assay type: in vivo, Ipomoea spp.; settings: 0 to 100 scale where 0 is no effect and 100 is complete control
# Summary of the method: as §1
# large (Lg) crabgrass [8] = assay: Test A preemergence; assay type: in vivo, Digitaria sanguinalis; settings: for Plant response rating, Crabgrass, Large: 125 g ai/ha; for Crabgrass, Large plant response rating: 500 g ai/ha
# Summary of the method: as §1
# velvetleaf [9] = assay: Test A preemergence; assay type: in vivo, Abutilon theophrasti; settings: for Plant response rating, Velvetleaf: 125 g ai/ha; for Velvetleaf plant response rating: 500 g ai/ha
# Summary of the method: as §1
# rice = assay: Test B flooded paddy test; assay type: in vivo, Oryza sativa; settings: Flood, 250 g ai/ha; 0 to 100 scale where 0 is no effect and 100 is complete control
# Summary of the method: as §2
# large (Lg) crabgrass [10] = assay: Test A postemergence; assay type: in vivo, Digitaria sanguinalis
# Summary of the method: as §1
# velvetleaf [11] = assay: Test A postemergence; assay type: in vivo, Abutilon theophrasti; settings: 0 to 100 scale where 0 is no effect and 100 is complete control
# Summary of the method: as §1
# barnyardgrass [12] = assay: Test A preemergence; assay type: in vivo, Echinochloa crus-galli; settings: for Plant response rating, Barnyardgrass: 125 g ai/ha; for Barnyardgrass plant response rating: 500 g ai/ha
# Summary of the method: as §1
# pigweed [13] = assay: Test A postemergence; assay type: in vivo, Amaranthus retroflexus; settings: 0 to 100 scale where 0 is no effect and 100 is complete control
# Summary of the method: as §1
# barnyardgrass [14] = assay: Test A postemergence; assay type: in vivo, Echinochloa crus-galli
# Summary of the method: as §1
# sedge, umbrella = assay: Test B flooded paddy test; assay type: in vivo, Cyperus difformis; settings: Flood, 250 g ai/ha; 0 to 100 scale where 0 is no effect and 100 is complete control
# Summary of the method: as §2
# Heteranthera limosa = assay: Test B flooded paddy test; assay type: in vivo; settings: Flood, 250 g ai/ha; 0 to 100 scale where 0 is no effect and 100 is complete control
# Summary of the method: as §2
# pigweed [15] = assay: Test A preemergence; assay type: in vivo, Amaranthus retroflexus; settings: for Plant response rating, Pigweed: 125 g ai/ha; for Pigweed plant response rating: 500 g ai/ha
# Summary of the method: as §1
# corn [16] = assay: Test A postemergence; assay type: in vivo, Zea mays
# Summary of the method: as §1
# morningglory [17] = assay: Test A preemergence; assay type: in vivo, Ipomoea spp.; settings: for Plant response rating, Morningglory: 125 g ai/ha; for Morningglory plant response rating: 500 g ai/ha
# Summary of the method: as §1
# [18] = 0 to 100 scale where 0 is no effect and 100 is complete control
# [19] = 0 to 100 scale, 0 no effect, 100 complete control, approx. 10 days
# [20] = 125 g ai/ha, 0 to 100 scale where 0 is no effect and 100 is complete control
# [21] = 500 g ai/ha, 0 to 100 scale, 0 no effect, 100 complete control
# [22] = 500 g ai/ha, 0 to 100 scale where 0 is no effect and 100 is complete control
Structure (SMILES),"Plant response rating, Wheat (wheat [1]; [18])","Plant response rating, Barnyardgrass (barnyardgrass [2])","Plant response rating, Foxtail, Giant (giant foxtail [3]; 125 g ai/ha)","Plant response rating, Foxtail, Giant (giant foxtail [3]; 500 g ai/ha)","Plant response rating, Wheat (wheat [4]; 125 g ai/ha)","Plant response rating, Wheat (wheat [4]; 500 g ai/ha)","Plant response rating, Corn (corn [5]; [18])",Corn plant response rating (corn [5]; [19]),"Plant response rating, Foxtail, Giant (giant foxtail [6]; [18])","Plant response rating, Morningglory (morningglory [7]; 500 g ai/ha)","Plant response rating, Crabgrass, Large (large (Lg) crabgrass [8]; [18])","Plant response rating, Velvetleaf (velvetleaf [9]; [18])","Plant response rating, Rice (rice)","Plant response rating, Velvetleaf (velvetleaf [11]; 500 g ai/ha)","Plant response rating, Barnyardgrass (barnyardgrass [12]; [18])","Plant response rating, Pigweed (pigweed [13]; 500 g ai/ha)","Plant response rating, Sedge, Umbrella (sedge, umbrella)","Plant response rating, Ducksalad (Heteranthera limosa)","Plant response rating, Pigweed (pigweed [15]; [18])","Plant response rating, Morningglory (morningglory [17]; [18])",further results
FC(F)(F)c1cccc(Oc2ncc(Cl)cn2)c1-n1cc(Br)cn1 [Compound 64],0,0,80,100,0,30,0,70,90,80,90,40,0,100,60,100,80,70,90,0,"Wheat plant response rating (wheat [1]; [19]): 30; Foxtail, Giant plant response rating (giant foxtail [6]; [19]): 90; Plant response rating, Morningglory (morningglory [7]; 125 g ai/ha): 60; Crabgrass, Large plant response rating (large (Lg) crabgrass [8]; [19]): 90; Velvetleaf plant response rating (velvetleaf [9]; [19]): 90; Plant response rating, Crabgrass, Large (large (Lg) crabgrass [10]; [20]): 80; Plant response rating, Crabgrass, Large (large (Lg) crabgrass [10]; [21]): 100; Plant response rating, Velvetleaf (velvetleaf [11]; 125 g ai/ha): 100; Barnyardgrass plant response rating (barnyardgrass [12]; [19]): 100; Plant response rating, Pigweed (pigweed [13]; 125 g ai/ha): 100; Plant response rating, Barnyardgrass (barnyardgrass [14]; [20]): 60; Plant response rating, Barnyardgrass (barnyardgrass [14]; [21]): 100; Pigweed plant response rating (pigweed [15]; [19]): 100; Plant response rating, Corn (corn [16]; [20]): 30; Plant response rating, Corn (corn [16]; [21]): 90; Morningglory plant response rating (morningglory [17]; [19]): 20"
N#Cc1cccc(Oc2ncc(I)cn2)c1-n1cc(Cl)cn1 [Compound 75],0,0,10,80,0,0,0,10,40,60,70,40,0,70,20,100,50,60,100,20,"Wheat plant response rating (wheat [1]; [19]): 0; Foxtail, Giant plant response rating (giant foxtail [6]; [19]): 100; Plant response rating, Morningglory (morningglory [7]; 125 g ai/ha): 50; Crabgrass, Large plant response rating (large (Lg) crabgrass [8]; [19]): 100; Velvetleaf plant response rating (velvetleaf [9]; [19]): 80; Plant response rating, Crabgrass, Large (large (Lg) crabgrass [10]; [20]): 20; Plant response rating, Crabgrass, Large (large (Lg) crabgrass [10]; [21]): 70; Plant response rating, Velvetleaf (velvetleaf [11]; 125 g ai/ha): 40; Barnyardgrass plant response rating (barnyardgrass [12]; [19]): 70; Plant response rating, Pigweed (pigweed [13]; 125 g ai/ha): 70; Plant response rating, Barnyardgrass (barnyardgrass [14]; [20]): 30; Plant response rating, Barnyardgrass (barnyardgrass [14]; [21]): 70; Pigweed plant response rating (pigweed [15]; [19]): 100; Plant response rating, Corn (corn [16]; [20]): 0; Plant response rating, Corn (corn [16]; [21]): 40; Morningglory plant response rating (morningglory [17]; [19]): 30"
O=Cc1cccc(Oc2ncc(F)cn2)c1-n1cc(Cl)cn1 [Compound 93],0,0,0,0,0,0,0,0,0,0,0,0,0,0,0,0,0,0,0,0,"Foxtail, Giant plant response rating (giant foxtail [6]; [19]): 0; Plant response rating, Morningglory (morningglory [7]; 125 g ai/ha): 0; Crabgrass, Large plant response rating (large (Lg) crabgrass [8]; [19]): 30; Plant response rating, Crabgrass, Large (large (Lg) crabgrass [10]; [20]): 0; Plant response rating, Crabgrass, Large (large (Lg) crabgrass [10]; [22]): 0; Plant response rating, Velvetleaf (velvetleaf [11]; 125 g ai/ha): 0; Barnyardgrass plant response rating (barnyardgrass [12]; [19]): 0; Plant response rating, Pigweed (pigweed [13]; 125 g ai/ha): 0; Plant response rating, Barnyardgrass (barnyardgrass [14]; [20]): 0; Plant response rating, Barnyardgrass (barnyardgrass [14]; [22]): 0; Pigweed plant response rating (pigweed [15]; [19]): 30; Plant response rating, Corn (corn [16]; [20]): 0; Plant response rating, Corn (corn [16]; [22]): 0; Morningglory plant response rating (morningglory [17]; [19]): 0"
CC(=O)c1cccc(Oc2ncc(Cl)cn2)c1-n1cc(Br)cn1 [Compound 96],0,0,0,20,0,0,0,0,10,10,30,0,0,10,0,40,0,0,50,0,"Foxtail, Giant plant response rating (giant foxtail [6]; [19]): 60; Plant response rating, Morningglory (morningglory [7]; 125 g ai/ha): 0; Crabgrass, Large plant response rating (large (Lg) crabgrass [8]; [19]): 90; Plant response rating, Crabgrass, Large (large (Lg) crabgrass [10]; [20]): 10; Plant response rating, Crabgrass, Large (large (Lg) crabgrass [10]; [22]): 30; Plant response rating, Velvetleaf (velvetleaf [11]; 125 g ai/ha): 0; Barnyardgrass plant response rating (barnyardgrass [12]; [19]): 30; Plant response rating, Pigweed (pigweed [13]; 125 g ai/ha): 10; Plant response rating, Barnyardgrass (barnyardgrass [14]; [20]): 10; Plant response rating, Barnyardgrass (barnyardgrass [14]; [22]): 30; Pigweed plant response rating (pigweed [15]; [19]): 100; Plant response rating, Corn (corn [16]; [20]): 0; Plant response rating, Corn (corn [16]; [22]): 10; Morningglory plant response rating (morningglory [17]; [19]): 0"
O=Cc1cccc(Oc2ncc(Br)cn2)c1-n1cc(C(F)(F)F)cn1 [Compound 161],0,0,,0,,0,0,,0,0,0,10,0,20,0,80,0,0,90,0,"Wheat plant response rating (wheat [1]; [18]): 0; Foxtail, Giant plant response rating (giant foxtail [3]; 125 g ai/ha): 0; Wheat plant response rating (wheat [4]; 125 g ai/ha): 0; Corn plant response rating (corn [5]; [18]): 0; Foxtail, Giant plant response rating (giant foxtail [6]; [18]): 0; Morningglory plant response rating (morningglory [7]; 125 g ai/ha): 0; Crabgrass, Large plant response rating (large (Lg) crabgrass [8]; [18]): 0; Velvetleaf plant response rating (velvetleaf [9]; [18]): 20; Crabgrass, Large plant response rating (large (Lg) crabgrass [10]; [20]): 0; Plant response rating, Crabgrass, Large (large (Lg) crabgrass [10]; [22]): 0; Velvetleaf plant response rating (velvetleaf [11]; 125 g ai/ha): 10; Barnyardgrass plant response rating (barnyardgrass [12]; [18]): 10; Pigweed plant response rating (pigweed [13]; 125 g ai/ha): 50; Barnyardgrass plant response rating (barnyardgrass [14]; [20]): 0; Plant response rating, Barnyardgrass (barnyardgrass [14]; [22]): 0; Pigweed plant response rating (pigweed [15]; [18]): 100; Corn plant response rating (corn [16]; [20]): 0; Plant response rating, Corn (corn [16]; [22]): 0; Morningglory plant response rating (morningglory [17]; [18]): 0"
